Data set [1] deals with Reconstructed Human Epidermis (RHE). Briefly: LDH quantification (membrane integrity / viability) in cold-stress epidermal dryness model. Format: cell-based. The text has this:
(§1) An experimental model of epidermal dryness, induced by modified room humidity and temperature conditions, has been used to assess the efficacy of 3 cosmetic products characterized by the following compositions SOLUTION 1 Water + trehalose 1% SOLUTION 2 Water + ectoine 0,5% SOLUTION 3 Water + ectoine 0,5% + trehalose 1%.
(§2) SkinEthic® Reconstructed Human Epidermis (RHE) of 0,5 cm^2 is a fully differentiated epidermis formed after 17 day of air-lift culture of NHK from skin biopsies in a chemically defined medium. The model reproduces epidermal morphology and it has been fully characterized. The good barrier function, batch reproducibility and low variability in terms of permeability for probe molecules have been described in the Literature compared to human ex-vivo models.
Immediately after arrival in the laboratory, the RHE were transferred to a 6-well plate previously filled with maintenance medium (1 mL/well) at room temperature and incubated at 37°C, 5% CO2, saturated humidity. The test has been started the day after the arrival.
The cell membrane forms a functional barrier around the cell, and traffic into and out of the cell is highly regulated by transporters, receptors and secretion pathways. When cells are damaged, they become 'leaky' and this forms the basis for the second type of assay. Membrane integrity is determined by measuring lactate dehydrogenase (LDH) in the extracellular medium. This enzyme is normally present in the cytosol, and cannot be measured extracellularly unless cell damage has occurred. […] The culture supernatant is collected and incubated with the reaction mixture including the kit (20 min, room T°, in the dark). An increase in the amount of dead or plasma membrane-damaged cells results in an increase of the LDH enzyme activity in the culture media. This increase in the amount of enzyme activity in the supernatant directly correlates to the amount of formazan formed during a defined time period therefore, the amount of color formed in the assay is proportional to the number of lysed cells.
The higher optical density has been quantified in the media of stressed RHE and used as 100 % higher citotoxicity value.

The next data set has as its system AQP3. Briefly: Real time PCR, AQP3 gene expression in RHE. Conditions: for AQP3 (RQ): cold stressed RHE. The class given is cell-based, Human.
Text: as §1, §2
(§3) For the three steps, ready to use reagents were used. The RNAqueous method is a rapid, phenol free, filter based RNA isolation system used to extract the total RNA from cellular samples. The High Capacity cDNA Reverse Transcription kit was used to synthetize cDNA from RNA. The instrument Applied Biosystems 7500 Fast Real Time PCR with fluorescent-based PCR chemistry, the TaqMan assay, was used to study gene expression of significant biomarkers. Gene expression is the process by which the inheritable information in a gene, such as the DNA sequence, is made into a functional gene product, such as protein or RNA. Relative quantification determines the change in the expression of a nucleic acid sequence in a test sample relative to the same sequence in a calibrator sample. Beta-actin was used as an endogenous control gene to normalize input amounts.
(§4) Each replicate was assessed in triplicate. At the 2X TaqMan Fast Universal PCR Master Mix was added Taqman gene expression assay and cDNA (25 ng) for a total volume of 25 µL. The Thermal condition steps in the ABI PRISM 7500 Fast are: 95°C 20 sec; 40 cycles (95°C 3 sec +60°C 30 sec).
(§5) Fluorescence data of the RT-PCR generated by the thermocycler ABI PRISM 7500 Fast, are collected by the internal software SDS 2.0.5 and the Raw Data (RQ study results) are printed and exported in Excel.
(§6) Because each cycle in the PCR reaction corresponds to a 2-fold increase in PCR product, a difference of one in threshold cycle number represents a 2-fold difference in the expression of a particular gene compared to the calibrator sample and can be considered as significant. 95% of confidence level is used by the software to calculate the errors.
(§7) The cold stress performed by 30' induction at -20°C corresponds to a block of water flux: the treatment has been done at this moment and followed by 16h and 48h recovery allowing to monitor the dynamic of the genomic response and to study product mechanism of action: the fig.3 described RHE's physiological response of saline solution treatment and glycerol compared to the RHE physiological response of the same treated with SOLUTIONS 1,2,3.
On the technique in general: Quantitative PCR measures a nucleic acid by following its amplification.

A further data set relates to HSP1A1. In words: Real time PCR, HSP1A1 (HSP 72) gene expression in RHE. The class given is cell-based, Human. As to conditions: for HSP 72 (RQ): cold stressed RHE, calibrator stressed saline =1 (Fig. 7).
Text: as §1, §2, §3, §4, §5, §6, §7

Turning to `OCC(O)CO` [Glycerin 5%, Glycerin], the “citotoxicity (LDH release), verbal assessment” value in data set [1] (16h and 48h, standard conditions (for Glycerin 5% also stressed conditions)) is recorded as “not citotoxic”. In addition, the “% VIABILITY” value in data set [1] (STANDARD conditions (without stress), 30 MIN + 16H) is 96,08%; in data set [1] (STANDARD conditions (without stress), 30 MIN + 48H), 63,14%; in data set [1] (cold stressed RHE (30 MIN at -20°C), product applied, 16H recovery), 80,70%; in data set [1] (cold stressed RHE (30 MIN at -20°C), product applied, 48H recovery), 61,11%. The “AQP3 Gene expression (RQ)” value in the data set on AQP3 (applied after 30' stress induction, 48h recovery, calibrator CONTROL RHE CN=1 (Fig. 3)) was “reduced”; in the data set on AQP3 (non stressed but treated RHE, standard conditions, 16h, calibrator CN 16h=1 (Fig. 1)), “significantly reduced”; in the data set with AQP3 (non stressed but treated RHE, standard conditions, 48h, calibrator CN 48h=1 (Fig. 1)), 1,694. Also, the “AQP3 (RQ)” value in the data set with AQP3 (16H recovery, calibrator RHE STRESSED SALINE =1) was 0,437; with AQP3 (48H recovery, calibrator RHE STRESSED SALINE =1 (Fig. 4), 2880 min) it was 0,409; with AQP3 (48H recovery, calibrator RHE STRESSED SALINE =1 (Fig. 4), listed as Glycerol 5%), “reduced”. The “HSP 72 (RQ)” value in the data set on HSP1A1 (16H recovery) is listed as “down-regulation”; in the data set with HSP1A1 (16H recovery, 960 min), 0,139; in the data set on HSP1A1 (48H recovery) it was 0,437. Besides, the “HSP1A1 Gene expression” value in the data set with HSP1A1 (non stressed but treated RHE, standard condition, 16h, calibrator CN 16h=1 (Fig. 5)) is listed as “significantly reduced”. Besides, the “HSP1A1 (HSP 72) Gene expression” value with HSP1A1 (not stressed RHE, 48h treatment, calibrator CN 48h=1 (Fig. 5)) is listed as “over expression”. In addition, the “HSP 72 expression” value in the data set on HSP1A1 (stressed RHE, 16h recovery, calibrator positive stressed control (Fig. 6)) is “reduced”.

The record behind these values is patent EP2695600A1, “Dermal cosmetic compositions having osmoprotecting activity” (Unifarco S.p.A., priority 2012, dated 2014).
